From patent US8586550B2, “Thiazole derivatives as SGLT2 inhibitors and pharmaceutical composition comprising same” (Green Cross Corporation, priority 2010, dated 2013)

Each compound was assayed against T1, Human SGLT2 (hSGLT2) (Homo sapiens, UniProt P31639) (assay: Sodium-dependent glucose transport (14C-AMG uptake) assay in CHO cells stably expressing hSGLT2). Details: CHO cells expressing hSGLT2, 14C-AMG uptake, 37° C. for 2 h; single determinations; read-out: hSGLT2 Inhibitory Activity IC50.
T1 construct: expressed in transfected cells
T1 sequence (P31639 1-672): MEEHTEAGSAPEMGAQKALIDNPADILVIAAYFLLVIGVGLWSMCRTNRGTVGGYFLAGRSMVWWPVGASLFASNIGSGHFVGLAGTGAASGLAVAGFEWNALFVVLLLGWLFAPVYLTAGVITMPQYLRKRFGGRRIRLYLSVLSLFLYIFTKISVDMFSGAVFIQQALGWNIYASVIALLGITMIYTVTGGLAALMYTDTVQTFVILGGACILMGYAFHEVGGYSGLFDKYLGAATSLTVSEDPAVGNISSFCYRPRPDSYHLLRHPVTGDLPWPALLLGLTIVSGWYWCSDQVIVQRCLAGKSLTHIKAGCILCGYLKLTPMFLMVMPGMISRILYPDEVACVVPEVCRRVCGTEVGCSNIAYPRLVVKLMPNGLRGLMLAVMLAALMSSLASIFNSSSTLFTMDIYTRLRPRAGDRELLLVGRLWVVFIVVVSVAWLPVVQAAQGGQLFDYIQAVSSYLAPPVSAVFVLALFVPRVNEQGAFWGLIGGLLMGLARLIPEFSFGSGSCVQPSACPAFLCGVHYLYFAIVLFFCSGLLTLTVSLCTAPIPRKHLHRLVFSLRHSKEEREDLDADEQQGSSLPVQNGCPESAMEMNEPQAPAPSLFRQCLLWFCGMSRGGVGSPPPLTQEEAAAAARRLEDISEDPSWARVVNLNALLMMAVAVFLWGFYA
Type: cell-based
Description: Cloning and Cell Line Construction for Human SGLT2
Human SGLT2 (hSGLT2) gene was amplified by PCR from cDNA-Human Adult Normal Tissue Kidney (Invitrogen). The hSGLT2 sequence was cloned into pcDNA3.1(+) for mammalian expression and were stably transfected into chinese hamster ovary (CHO) cells. SGLT2-expressing clones were selected based on resistance to G418 antibiotic (Geneticin) and activity in the ^14C-α-methyl-D-glucopyranoside (^14C-AMG) uptake assay.
Inhibitory Effects on Human SGLT2 Activities
For sodium-dependent glucose transport assay, cells expressing hSGLT2 were seeded into a 96-well culture plate at a density of 5×10^4 cells/well in RPMI medium 1640 containing 10% fetal bovine serum. The cells were used 1 day after plating. They were incubated in pretreatment buffer (10 mM HEPES, 5 mM Tris, 140 mM choline chloride, 2 mM KCl, 1 mM CaCl2, and 1 mM MgCl2, pH 7.4) at 37° C. for 10 min. They were then incubated in uptake buffer (10 mM HEPES, 5 mM Tris, 140 mM NaCl, 2 mM KCl, 1 mM CaCl2, 1 mM MgCl2, and 1 mM ^14C-nonlabeled AMG, pH 7.4) containing ^14C-labeled (8 μM) and inhibitor or dimethylsulfoxide (DMSO) vehicle at 37° C. for 2 h. Cells were washed twice with washing buffer (pretreatment buffer containing 10 mM AMG at room temperature) and then the radioactivity was measured using a liquid scintillation counter. IC50 was determined by nonlinear regression analysis using GraphPad PRISM [Katsuno, K. et al. J. Pharmacol. Exp. Ther. 2007, 320, 323-330; Han, S. et al. Deabetes, 2008, 57, 1723-1729].

| IC50 | Compound |
| --- | --- |
| 25.4 nM | OC[C@H]1O[C@@H](c2ccc(F)c(Cc3ncc(-c4cccs4)s3)c2)[C@H](O)[C@@H](O)[C@@H]1O [Example 42, (2S,3R,4R,5S,6R)-2-(4-Fluoro-3-((5-(thiophen-2-yl)thiazol-2-yl)methyl)phenyl)-6-(hydroxymethyl)tetrahydro-2H-pyran-3,4,5-triol] |
| 19.2 nM | CCCc1cnc(Cc2cc([C@@H]3O[C@H](CO)C(O)[C@H](O)[C@H]3O)c3ccccc3c2OC)s1 (stereo in doubt) [Example 99, (2R,3R,4R,5R,6S)-2-(Hydroxymethyl)-6-(4-methoxy-3-((5-propylthiazol-2-yl)methyl)naphthalen-1-yl)-tetrahydro-2H-pyran-3,4,5-triol] |
| 5.43 nM | OC[C@H]1O[C@@H](c2cc(Cc3ncc(-c4ccco4)s3)c(Cl)cc2Cl)[C@H](O)[C@@H](O)[C@@H]1O [Example 59, (2S,3R,4R,5S,6R)-2-(2,4-Dichloro-5-((5-(furan-2-yl)thiazol-2-yl)methyl)phenyl)-6-(hydroxymethyl)tetrahydro-2H-pyran-3,4,5-triol] |
| 11.5 nM | C=CCc1cnc(Cc2cc([C@@H]3O[C@H](CO)[C@@H](O)[C@H](O)[C@H]3O)ccc2Cl)s1 [Example 17, (2S,3R,4R,5S,6R)-2-(3-((5-Allylthiazol-2-yl)methyl)-4-chlorophenyl)-6-(hydroxymethyl)-tetrahydro-2H-pyran-3,4,5-triol] |
| 5.76 nM | OC[C@H]1O[C@@H](c2ccc(Cl)c(Cc3cnc(-c4ccccc4)s3)c2)[C@H](O)[C@@H](O)[C@@H]1O [Example 183, (2S,3R,4R,5S,6R)-2-(4-Chloro-3-((2-phenylthiazol-5-yl)methyl)phenyl)-6-(hydroxymethyl)-tetrahydro-2H-pyran-3,4,5-triol] |
| 50.3 nM | CCOC(=O)c1cnc(Cc2cc([C@@H]3O[C@H](CO)[C@@H](O)[C@H](O)[C@H]3O)ccc2Cl)s1 [Example 106, Ethyl 2-(2-chloro-5-((2S,3R,4R,5S,6R)-3,4,5-trihydroxy-6-(hydroxymethyl)-tetrahydro-2H-pyran-2-yl)benzyl)thiazole-5-carboxylate] |
| 58.2 nM | OC[C@H]1O[C@@H](c2cc(Cc3ncc(-c4ccc(F)cc4)s3)c(O)c3ccccc23)[C@H](O)[C@@H](O)[C@@H]1O [Example 123, (2S,3R,4R,5S,6R)-2-(3-((5-(4-Fluorophenyl)thiazol-2-yl)methyl)-4-hydroxynaphthalen-1-yl)-6-(hydroxymethyl)-tetrahydro-2H-pyran-3,4,5-triol] |
| 119 nM | CCCCc1cnc(Cc2cc([C@@H]3O[C@H](CO)[C@@H](O)[C@H](O)[C@H]3O)ccc2Cl)s1 [Example 13, (2S,3R,4R,5S,6R)-2-(3-((5-Butylthiazol-2-yl)methyl)-4-chlorophenyl)-6-(hydroxymethyl)-tetrahydro-2H-pyran-3,4,5-triol] |
| 12 nM | COc1c(Cc2ncc(-c3ccc(F)cc3)s2)cc([C@@H]2O[C@H](CO)[C@@H](O)[C@H](O)[C@H]2O)c2ccccc12 [Example 2, (2S,3R,4R,5S,6R)-2-(3-((5-(4-Fluorophenyl)thiazol-2-yl)methyl)-4-methoxynaphthalen-1-yl)-6-(hydroxymethyl)-tetrahydro-2H-pyran-3,4,5-triol] |
| 13.3 nM | CCCCCc1cnc(Cc2cc([C@@H]3O[C@H](CO)[C@@H](O)[C@H](O)[C@H]3O)ccc2Cl)s1 [Example 14, (2S,3R,4R,5S,6R)-2-(4-Chloro-3-((5-pentylthiazol-2-yl)methyl)phenyl)-6-(hydroxymethyl)-tetrahydro-2H-pyran-3,4,5-triol] |
| 7.39 nM | CCOC(=O)OC[C@H]1O[C@@H](c2ccc(Cl)c(Cc3ncc(-c4ccsc4)s3)c2)[C@H](O)[C@@H](O)[C@@H]1O [Example 165, ((2R,3S,4R,5R,6S)-6-(4-Chloro-3-((5-(thiophen-3-yl)thiazol-2-yl)methyl)phenyl)-3,4,5-trihydroxytetrahydro-2H-pyran-2-yl)methyl ethyl carbonate] |
| 0.934 nM | C=CCOc1cc(Cl)c(Cc2ncc(-c3ccsc3)s2)cc1[C@@H]1O[C@H](CO)[C@@H](O)[C@H](O)[C@H]1O [Example 86, (2S,3R,4R,5S,6R)-2-(2-(Allyloxy)-4-chloro-5-((5-(thiophen-3-yl)thiazol-2-yl)methyl)phenyl)-6-(hydroxymethyl)tetrahydro-2H-pyran-3,4,5-triol] |
| 2 nM | OC[C@H]1O[C@@H](c2ccc(Cl)c(Cc3ncc(-c4ccsc4)s3)c2)[C@H](O)[C@@H](O)[C@@H]1O [Example 1, (2S,3R,4R,5S,6R)-2-(4-Chloro-3-((5-(thiophen-3-yl)thiazol-2-yl)methyl)phenyl)-6-(hydroxymethyl)-tetrahydro-2H-pyran-3,4,5-triol] |
| 3.38 nM | C=CCOc1cc(Cl)c(Cc2ncc(-c3ccccc3)s2)cc1[C@@H]1O[C@H](CO)[C@@H](O)[C@H](O)[C@H]1O [Example 87, (2S,3R,4R,5S,6R)-2-(2-(Allyloxy)-4-chloro-5-((5-phenylthiazol-2-yl)methyl)phenyl)-6-(hydroxymethyl)tetrahydro-2H-pyran-3,4,5-triol] |
| 18.9 nM | CCCCCSc1cnc(Cc2cc([C@@H]3O[C@H](CO)[C@@H](O)[C@H](O)[C@H]3O)ccc2Cl)s1 [Example 27, (2S,3R,4R,5S,6R)-2-(4-Chloro-3-((5-(pentylthio)thiazol-2-yl)methyl)phenyl)-6-(hydroxymethyl)-tetrahydro-2H-pyran-3,4,5-triol] |
| 5.08 nM | CCCCOC(=O)OC[C@H]1O[C@@H](c2ccc(Cl)c(Cc3ncc(-c4ccco4)s3)c2)[C@H](O)[C@@H](O)[C@@H]1O [Example 161, Butyl ((2R,3S,4R,5R,6S)-6-(4-chloro-3-((5-(furan-2-yl)thiazol-2-yl)methyl)phenyl)-3,4,5-trihydroxytetrahydro-2H-pyran-2-yl)methyl carbonate] |
| 108 nM | CCCc1cnc(Cc2cn([C@@H]3O[C@H](CO)[C@@H](O)[C@H](O)[C@H]3O)c3ccccc23)s1 [Example 134, (2R,3S,4S,5R,6R)-2-(Hydroxymethyl)-6-(3((5-propylthiazol-2-yl)methyl)-1H-indol-1-yl)tetrahydro-2H-pyran-3,4,5-triol] |
| 4.17 nM | Cc1ccc([C@@H]2O[C@H](CO)[C@@H](O)[C@H](O)[C@H]2O)cc1Cc1ncc(-c2ccccc2)s1 [Example 35, (2R,3S,4R,5R,6S)-2-(Hydroxymethyl)-6-(4-methyl-3-((5-phenylthiazol-2-yl)methyl)phenyl)tetrahydro-2H-pyran-3,4,5-triol] |
| 20.8 nM | OC[C@H]1O[C@@H](c2ccc(C(F)(F)F)c(Cc3ncc(-c4ccccc4)s3)c2)[C@H](O)[C@@H](O)[C@@H]1O [Example 51, (2R,3S,4R,5R,6S)-2-(Hydroxymethyl)-6-(3-((5-phenylthiazol-2-yl)methyl)-4-(trifluoromethyl)phenyl)tetrahydro-2H-pyran-3,4,5-triol] |
| 6.11 nM | OC[C@H]1O[C@@H](c2ccc(F)c(Cc3ncc(-c4ccco4)s3)c2)[C@H](O)[C@@H](O)[C@@H]1O [Example 40, (2S,3R,4R,5S,6R)-2-(4-Fluoro-3-((5-(furan-2-yl)thiazol-2-yl)methyl)phenyl)-6-(hydroxymethyl)tetrahydro-2H-pyran-3,4,5-triol] |
| 25.4 nM | OC[C@H]1O[C@@H](c2ccc(Cl)c(Cc3ncc(C4CCCCC4)s3)c2)[C@H](O)[C@@H](O)[C@@H]1O [Example 20, (2S,3R,4R,5S,6R)-2-(4-Chloro-3-((5-cyclohexylthiazol-2-yl)methyl)phenyl)-6-(hydroxymethyl)-tetrahydro-2H-pyran-3,4,5-triol] |
| 26.3 nM | CCc1cnc(Cc2cc([C@@H]3O[C@H](CO)[C@@H](O)[C@H](O)[C@H]3O)c(Cl)cc2Cl)s1 [Example 64, (2S,3R,4R,5S,6R)-2-(2,4-Dichloro-5-((5-ethylthiazol-2-yl)methyl)phenyl)-6-(hydroxymethyl)tetrahydro-2H-pyran-3,4,5-triol] |
| 1.18 nM | (2S,3R,4R,5S,6R)-2-(4-Chloro-2-ethoxy-5-((5-(thiophen-3-yl)thiazol-2-yl)methyl)phenyl)-6-(hydroxymethyl)tetrahydro-2H-pyran-3,4,5-triol [Example 80] |
